From ChEMBL document CHEMBL5126668, “The Invention of WM382, a Highly Potent PMIX/X Dual Inhibitor toward the Treatment of Malaria” (ACS Med Chem Lett, 2022)
Converted amounts (≈) assume the structure as drawn.

Assays:
[1] = system: Plasmodium falciparum; experiment: Antimalarial activity against asexual blood stage Plasmodium falciparum infected in RBC measured after 72 hrs by LDH release assay; type: functional, organism-based; conditions: Erythrocyte
[2] = biological target: Plasmepsin X (Plasmodium falciparum (isolate 3D7), UniProt Q8IAS0); experiment: Inhibition of Plasmodium falciparum 3D7 HA-glms-tagged PMX using DABCYL-HSFIQEGKEE-EDANS as substrate measured after 2 hrs by FRET assay
Sequence of Plasmepsin X (Q8IAS0 whole entry): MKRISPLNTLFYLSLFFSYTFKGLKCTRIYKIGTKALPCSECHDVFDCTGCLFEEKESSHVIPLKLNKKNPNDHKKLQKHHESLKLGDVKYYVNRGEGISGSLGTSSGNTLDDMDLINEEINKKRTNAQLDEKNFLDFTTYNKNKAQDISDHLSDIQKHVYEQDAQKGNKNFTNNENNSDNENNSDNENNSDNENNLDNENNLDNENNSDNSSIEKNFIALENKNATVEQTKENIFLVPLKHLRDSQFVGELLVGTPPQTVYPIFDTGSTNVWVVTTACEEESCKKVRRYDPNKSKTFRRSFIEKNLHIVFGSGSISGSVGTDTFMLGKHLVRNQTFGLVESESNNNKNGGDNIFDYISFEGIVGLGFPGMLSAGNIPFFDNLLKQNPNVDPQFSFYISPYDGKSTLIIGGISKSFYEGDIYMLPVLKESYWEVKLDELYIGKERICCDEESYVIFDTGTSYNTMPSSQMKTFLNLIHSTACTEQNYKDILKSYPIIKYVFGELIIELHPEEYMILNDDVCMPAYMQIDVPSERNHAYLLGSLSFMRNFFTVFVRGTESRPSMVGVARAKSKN

[3] = biological target: T1, Plasmepsin IX (Plasmodium falciparum, UniProt Q8ILG2); experiment: Inhibition of Plasmodium falciparum 3D7 HA-glms-tagged PMIX using DABCYL-HSFIQEGKEE-EDANS as substrate measured after 2 hrs by FRET assay
T1 sequence (Q8ILG2 whole entry): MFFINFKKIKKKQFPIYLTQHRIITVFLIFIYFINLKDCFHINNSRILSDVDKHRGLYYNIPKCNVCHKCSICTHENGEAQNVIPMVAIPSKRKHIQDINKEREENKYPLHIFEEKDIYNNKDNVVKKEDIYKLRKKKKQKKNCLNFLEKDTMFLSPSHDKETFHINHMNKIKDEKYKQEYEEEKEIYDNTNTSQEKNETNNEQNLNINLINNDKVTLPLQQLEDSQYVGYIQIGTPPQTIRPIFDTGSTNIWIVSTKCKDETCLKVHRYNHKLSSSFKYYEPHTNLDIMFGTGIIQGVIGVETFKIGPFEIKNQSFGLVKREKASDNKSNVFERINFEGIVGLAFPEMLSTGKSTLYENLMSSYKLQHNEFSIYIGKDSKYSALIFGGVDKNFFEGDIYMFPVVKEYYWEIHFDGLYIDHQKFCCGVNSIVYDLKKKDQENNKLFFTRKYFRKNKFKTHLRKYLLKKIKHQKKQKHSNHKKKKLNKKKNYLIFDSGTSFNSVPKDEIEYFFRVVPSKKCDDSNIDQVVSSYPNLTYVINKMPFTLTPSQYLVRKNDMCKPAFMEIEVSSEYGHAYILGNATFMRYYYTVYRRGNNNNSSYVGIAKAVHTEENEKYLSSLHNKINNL

[4] = Plasma clearance in mouse; type: ADME, organism-based
[5] = Lipophilicity, log D of compound at pH 7.4; type: physicochemical; conditions: buffer
[6] = Unbound clearance in rat; type: ADME; conditions: in vivo
[7] = Mean residence time in rat; type: ADME; conditions: in vivo
[8] = Unbound volume of distribution in mouse; type: ADME, organism-based; conditions: in vivo
[9] = Oral bioavailability in rat; type: ADME, organism-based; conditions: in vivo
[10] = Unbound plasma clearance in mouse; type: ADME, organism-based; conditions: in vivo
[11] = Plasma clearance in rat; type: ADME
[12] = system: Plasmodium falciparum; experiment: Antimalarial activity Plasmodium falciparum Dd2 assessed as EC90 fold pressure measured up to 62 days by microscopy; type: functional; conditions: Dd2, 1488 h, time <= 62 day
[13] = Mean residence time in mouse; type: ADME, organism-based; conditions: in vivo
[14] = Unbound volume of distribution in rat; type: ADME; conditions: in vivo
[15] = system: Plasmodium falciparum; experiment: Antimalarial activity Plasmodium falciparum Dd2 assessed as minimum inoculum for resistance measured up to 62 days by microscopy; type: functional; conditions: time <= 62 day
[16] = Volume of distribution in rat; type: ADME; conditions: in vivo
[17] = Kinetic solubility of the compound; type: physicochemical; conditions: read-out: Kinetic_solubility

Row | EC50 [1] | SMILES | also measured
1 | 22 nM | C[C@H](NC(=O)c1cc(F)cc(CN2C(=N)N[C@@](CC3CC3)(c3ccccc3)CC2=O)c1)c1ccccc1 | –
2 | 10 nM | CC(C)C[C@H](c1ccc(C(F)(F)F)c(C(=O)N2Cc3nccnc3C2)c1)N1C(=N)N[C@](CC2CC2)(c2ccccc2)CC1=O | IC50 [2]: 5.7 nM
3 | 0.8 nM | CCC[C@H](c1cccc(C(=O)N[C@@H](C)c2ccccc2)c1)N1C(=N)NC(CC)(CC)CC1=O | –
4 | 250 nM | C[C@H](NC(=O)c1cc(F)cc(CN2C(=N)NC3(CCCCC3)CC2=O)c1)c1ccccc1 | –
5 | > 1000 nM | CC(C)[C@]1(C)CC(=O)N(Cc2cccc(C(=O)NCCc3ccccc3)c2)C(=N)N1 | –
6 | 12 nM | CCC1(CC)CC(=O)N(Cc2cc(C(=O)N[C@H]3CCOc4ccccc43)ccn2)C(=N)N1 | –
7 | 40 nM | CCC1(CC)CC(=O)N([C@H](CCOC)c2cccc(C(=O)N[C@@H](C)c3ccccc3)c2)C(=N)N1 | –
8 | 169 nM | CCC1(CC)CC(=O)N(Cc2cc(C(=O)N[C@H]3CCOc4ccccc43)cnn2)C(=N)N1 | –
9 | 1 nM | CCC1(CC)CC(=O)N([C@H](c2ccccc2)c2cccc(C(=O)N[C@@H](C)c3ccccc3)c2)C(=N)N1 | –
10 | > 1000 nM | C[C@H](NC(=O)c1cc(F)cc(CN2C(=N)N[C@]3(C)CCCC[C@]3(C)C2=O)c1)c1ccccc1 | –
11 | > 1000 nM | CCNC(=O)c1cccc(CN2C(=N)N[C@](C)(C(C)C)CC2=O)c1 | –
12 | 160 nM | CCC1(CC)CC(=O)N(C(c2cccc(C(=O)N[C@@H](C)c3ccccc3)c2)C2CC2)C(=N)N1 (mixture of isomers) | –
13 | 110 nM | CCC1(CC)CC(=O)N(Cc2cccc(C(=O)N[C@H]3CCOc4ccccc43)n2)C(=N)N1 | –
14 | 17 nM | CC(C)CC(c1ccc(C(F)(F)F)c(C(=O)N2Cc3nccnc3C2)c1)N1C(=N)N[C@](CC2CC2)(c2ccccc2)CC1=O (some centres not stated) | –
15 | 66 nM | CC(C)[C@]1(C)CC(=O)N(Cc2cccc(C(=O)NC3CCc4ccccc43)c2)C(=N)N1 (mixture of isomers) | –
16 | 93 nM | CCC1(CC)CC(=O)N(Cc2cc(F)cc(C(=O)N[C@@H](C)c3ccccc3)c2)C(=N)N1 | –
17 | 17 nM | CCC1(CC)CC(=O)N(Cc2ccnc(C(=O)N[C@H]3CCOc4ccccc43)c2)C(=N)N1 | –
18 | 10 nM | CCC1(CC)CC(=O)N(Cc2cncc(C(=O)N[C@H]3CCOc4ccccc43)c2)C(=N)N1 | –
19 | > 1000 nM | CCC1(CC)NC(=N)N(Cc2cc(F)cc(C(=O)N[C@@H](C)c3ccccc3)c2)C1=O | –
20 | 1 nM | CCC1(CC)CC(=O)N([C@H](c2cccnc2)c2cccc(C(=O)N[C@@H](C)c3ccccc3)c2)C(=N)N1 | –
21 | 114 nM | CCC1(CC)CC(=O)N(Cc2cccc(C(=O)N[C@@H](C)c3ccccc3)c2)C(=N)N1 | –

Row | SMILES | EC50 [1] | also measured
22 | CCC1(CC)CC(=O)N([C@@H]2CCOc3ccc(C(=O)N[C@H]4CC(C)(C)Oc5ccccc54)cc32)C(=N)N1 | 0.4 nM | IC50 [3]: 1.4 nM; clearance [4]: 42 mL/min/kg; logD [5]: 2.5; IC50 [2]: 0.03 nM; CL free [6]: 1022 mL/min/kg; MRT [7]: 3.7 h; Vdu [8]: 120 L/kg; bioavailability [9]: 8%; CL free [10]: 774 mL/min/kg; clearance [11]: 42 mL/min/kg; EC90 [12]: 1.5 nM; MRT [13]: 2.5 h; Vdu [14]: 222 L/kg; Activity [15]: >9; Vd [16]: 9.4 L/kg; solubility kinetic [17]: 0.1 µM (≈ 0.0505 µg/mL)
23 | CC(C)[C@]1(C)CC(=O)N(C(c2ccccc2)c2cccc(C(=O)N[C@@H](C)c3ccccc3)c2)C(=N)N1 (some centres not stated) | 6.2 nM | EC90 [12]: 80 nM; Activity [15]: >9
